Assay results: the supplement of paper PMC4862054

These compounds were tested on CAL-120 (assay: drug sensitivity score (DSS), CellTiter-Blue viability (DSS (AUC-based score)); higher = stronger viability inhibition; extreme values may be limits of the assay). Settings: incubation time: 72 h.
Protocol: (§1)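 DSRT with the CellTiter-Blue (resazurin reduction) viability readout, fluorescence 560/590 nm, 72 h incubation. Plates were normalised to DMSO and benzethonium chloride controls. DSS is computed from the area under the fitted dose-response curve (5 or 9 concentrations).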
`CN(C)CCOc1ccc(/C(=C(/CCCl)c2ccccc2)c2ccccc2)cc1` [Toremifene] showed a drug sensitivity score of 0.

The compounds below were run on BT-549 in the same assay as above. Settings: incubation time: 72 h.
Protocol: as §1
`Cc1cc(Nc2cc(CN3CCOCC3)c3nc(C)c(Cc4ccc(Cl)cc4F)n3n2)n[nH]1` gave a drug sensitivity score of 6.94.
`CN(C)c1nc(N(C)C)nc(N(C)C)n1` [Altretamine] gave a drug sensitivity score of 0.
In the case of `COC(=O)c1ccc2c(c1)NC(=O)/C2=C(\Nc1ccc(N(C)C(=O)CN2CCN(C)CC2)cc1)c1ccccc1` [BIBF 1120], the drug sensitivity score is reported as 3.02.
With `Nc1cc(C(F)(F)F)c(-c2cc(N3CCOCC3)nc(N3CCOCC3)n2)cn1` [BKM-120] the drug sensitivity score was 8.93.
In the case of `O=P1(N(CCCl)CCCl)NCCCO1` (stereo not drawn) [Cyclophosphamide], the drug sensitivity score is reported as 0.
`C=C1C[C@@H]2[C@H](CC[C@]3(C)C(=O)CC[C@@H]23)[C@@]2(C)C=CC(=O)C=C12` [Exemestane] showed a drug sensitivity score of 0.
`Oc1ccc2c(c1)CC[C@H](c1ccccc1)[C@@H]2c1ccc(OCCN2CCCC2)cc1` [Lasofoxifene] was tested, and the drug sensitivity score was 0.
`COCC1(CO)C(=O)C2CCN1CC2` (stereo not drawn) [Prima-1 Met] showed a drug sensitivity score of 0.
With `S=P(N1CC1)(N1CC1)N1CC1` [Thio-TEPA] the drug sensitivity score was 0.
With `CN(C)CCOc1ccc(/C(=C(/CCCl)c2ccccc2)c2ccccc2)cc1` [Toremifene] the drug sensitivity score was 0.

What follows are compounds tested on BT-474 in the same assay as above. Settings: incubation time: 72 h.
Protocol: as §1
`Cc1cc(Nc2cc(CN3CCOCC3)c3nc(C)c(Cc4ccc(Cl)cc4F)n3n2)n[nH]1` was tested, and the drug sensitivity score was 3.02.
`CN(C)c1nc(N(C)C)nc(N(C)C)n1` [Altretamine] showed a drug sensitivity score of 0.
In the case of `COC(=O)c1ccc2c(c1)NC(=O)/C2=C(\Nc1ccc(N(C)C(=O)CN2CCN(C)CC2)cc1)c1ccccc1` [BIBF 1120], the drug sensitivity score is reported as 3.34.
`Nc1cc(C(F)(F)F)c(-c2cc(N3CCOCC3)nc(N3CCOCC3)n2)cn1` [BKM-120] was tested, and the drug sensitivity score was 9.72.
In the case of `O=P1(N(CCCl)CCCl)NCCCO1` (stereo not drawn) [Cyclophosphamide], the drug sensitivity score is reported as 0.
`C=C1C[C@@H]2[C@H](CC[C@]3(C)C(=O)CC[C@@H]23)[C@@]2(C)C=CC(=O)C=C12` [Exemestane] gave a drug sensitivity score of 0.
Compound `Oc1ccc2c(c1)CC[C@H](c1ccccc1)[C@@H]2c1ccc(OCCN2CCCC2)cc1` [Lasofoxifene] has a drug sensitivity score of 0.
`COCC1(CO)C(=O)C2CCN1CC2` (stereo not drawn) [Prima-1 Met] showed a drug sensitivity score of 2.5.
`S=P(N1CC1)(N1CC1)N1CC1` [Thio-TEPA] showed a drug sensitivity score of 0.
For `CN(C)CCOc1ccc(/C(=C(/CCCl)c2ccccc2)c2ccccc2)cc1` [Toremifene], the drug sensitivity score was 0.

These compounds were tested on MDA-MB-231 in the same assay as above. Settings: incubation time: 72 h.
Protocol: as §1
Compound `Cc1cc(Nc2cc(CN3CCOCC3)c3nc(C)c(Cc4ccc(Cl)cc4F)n3n2)n[nH]1` has a drug sensitivity score of 7.21.
In the case of `CN(C)c1nc(N(C)C)nc(N(C)C)n1` [Altretamine], the drug sensitivity score is reported as 0.
`COC(=O)c1ccc2c(c1)NC(=O)/C2=C(\Nc1ccc(N(C)C(=O)CN2CCN(C)CC2)cc1)c1ccccc1` [BIBF 1120] gave a drug sensitivity score of 4.3.
`Nc1cc(C(F)(F)F)c(-c2cc(N3CCOCC3)nc(N3CCOCC3)n2)cn1` [BKM-120] was tested, and the drug sensitivity score was 8.24.
`O=P1(N(CCCl)CCCl)NCCCO1` (stereo not drawn) [Cyclophosphamide] showed a drug sensitivity score of 0.
For `C=C1C[C@@H]2[C@H](CC[C@]3(C)C(=O)CC[C@@H]23)[C@@]2(C)C=CC(=O)C=C12` [Exemestane], the drug sensitivity score was 0.
Work on `Oc1ccc2c(c1)CC[C@H](c1ccccc1)[C@@H]2c1ccc(OCCN2CCCC2)cc1` [Lasofoxifene] yielded a drug sensitivity score of 0.
With `COCC1(CO)C(=O)C2CCN1CC2` (stereo not drawn) [Prima-1 Met] the drug sensitivity score was 0.
`S=P(N1CC1)(N1CC1)N1CC1` [Thio-TEPA] gave a drug sensitivity score of 3.37.
`CN(C)CCOc1ccc(/C(=C(/CCCl)c2ccccc2)c2ccccc2)cc1` [Toremifene] showed a drug sensitivity score of 0.

What follows are compounds tested on MFM-223 in the same assay as above. Settings: incubation time: 72 h.
Protocol: as §1
`Cc1cc(Nc2cc(CN3CCOCC3)c3nc(C)c(Cc4ccc(Cl)cc4F)n3n2)n[nH]1` showed a drug sensitivity score of 13.5.
`CN(C)c1nc(N(C)C)nc(N(C)C)n1` [Altretamine] was tested, and the drug sensitivity score was 0.
`COC(=O)c1ccc2c(c1)NC(=O)/C2=C(\Nc1ccc(N(C)C(=O)CN2CCN(C)CC2)cc1)c1ccccc1` [BIBF 1120] was tested, and the drug sensitivity score was 9.32.
`Nc1cc(C(F)(F)F)c(-c2cc(N3CCOCC3)nc(N3CCOCC3)n2)cn1` [BKM-120] showed a drug sensitivity score of 9.9.
`O=P1(N(CCCl)CCCl)NCCCO1` (stereo not drawn) [Cyclophosphamide] gave a drug sensitivity score of 0.
For `C=C1C[C@@H]2[C@H](CC[C@]3(C)C(=O)CC[C@@H]23)[C@@]2(C)C=CC(=O)C=C12` [Exemestane], the drug sensitivity score was 0.
With `Oc1ccc2c(c1)CC[C@H](c1ccccc1)[C@@H]2c1ccc(OCCN2CCCC2)cc1` [Lasofoxifene] the drug sensitivity score was 0.
